From publication PMC7582707, “Synthesis and Properties of CurNQ for the Theranostic Application in Ovarian Cancer Intervention” (Molecules, 2020)
≈ marks a conversion by molar mass, not a printed value.

Experiments:
[1] = Saturation solubility at different pH; format: physicochemical
Text: Consequently, cancer targeting and specific release of an active agent at the tumor location is essential. Multiple tactics can be employed to achieve this. Herein, we exploited the acidification of the tumor microenvironment that accompanies malignant transformation for targeted detection and treatment. […] The slight acidification of the microenvironment surrounding a tumor is a hallmark feature of cancer and is termed the Warburg effect. Therefore, CurNQ can detect this change in pH associated with malignant transformation resulting from its pH specific solubility.
Figure 4 Fluorescence properties and pH specific properties of CurNQ. (A) Excitation and emission spectra of 1.5 µM solution of CurNQ. (B) Saturation solubility of a I.5 µM solution of CurNQ at pH 7.4 and 6.8.

OVCAR-5 = assay: Cell viability / cytotoxicity by high content imaging (DAPI nuclei count); format: cell-based; settings: for IC50: OVCAR-5, 24 h treatment
Method: (§1) The ovarian carcinoma cancer cell lines OVCAR-5 and SKOV3 were purchased from Fox Chase Cancer Facility, USA, Jerkitown, […]. The healthy fibroblast cell line NIH: 3T3 was utilized as a control. The cells were cultured in DMEM with the media being supplemented with 10% fetal bovine serum and 1% penicillin-streptomycin. Cells were incubated at 37 °C with 5% CO2. Upon the cells reaching 70–80% confluency, the cells were washed, and sub-cultured by harvesting using trypsin/EDTA.
(§2) Cells were grown until 80% confluency prior to utilization. Upon confluency, media was removed, and cells were washed twice in sterile PBS. Trypsin/EDTA was then added to the flasks and incubated at 37 °C for 5 min, allowing the cells to detach from the bottom of the flask. These cells were then collected and centrifuged. The pellet was resuspended, and the cells were counted using the trypan blue exclusion assay. A predetermined and equal number of cells were then added into each well of a 96-well plate. The cells were incubated overnight at 37 °C and at 5% CO2, allowing the cells to attach to the plates. […] Each treatment was performed in quintuplicate. Treatments occurred for 24 h. Subsequent to this time period, media was removed, and cells were fixed with 5% formaldehyde in PBS for 20 min. Next, cells were incubated for 15 min in a 1 µg/mL solution of DAPI. The plates were then washed several times with PBS to remove all residual DAPI and to reduce background fluorescence. All plates were stored in the dark. Plates were then run on the Logos Biosystem CELENA® X High Content Imaging System and analyses were performed using their proprietary software. IC50 values were calculated using a Prism Graph. Using the Logos Biosystem software, a pipeline was set up to determine the nuclei count, form factor, compactness and eccentricity. The following definitions were used:Eccentricity = ratio of the distance between the foci of the ellipse and its major axis length. Compactness = mean squared distance of the object’s pixels from the centroid divided by the area. Form Factor = 4 × π × Area/Perimeter2

SKOV3 = assay: as above; format: cell-based; settings: for IC50: Homo sapiens, SK-OV-3, SKOV3, 24 h treatment
Method: as §1, §2

[2] = Cell viability / cytotoxicity by high content imaging, healthy fibroblast control; format: cell-based; settings: mouse, NIH:3T3 fibroblast cells
Method: as §1, §2

NIH:3T3 = assay: as above; format: cell-based; settings: Mus musculus, NIH3T3; NIH:3T3 healthy fibroblast, 24 h treatment
Method: as §1, §2

OVCAR-5 cells = assay: Nuclear morphology analysis by high content imaging (eccentricity, compactness, form factor); format: cell-based; settings: 24 h; for form factor of nuclei: OVCAR-5, treatment greater than 50 µM
Method: Cells were grown until 80% confluency prior to utilization. Upon confluency, media was removed, and cells were washed twice in sterile PBS. Trypsin/EDTA was then added to the flasks and incubated at 37 °C for 5 min, allowing the cells to detach from the bottom of the flask. These cells were then collected and centrifuged. The pellet was resuspended, and the cells were counted using the trypan blue exclusion assay. A predetermined and equal number of cells were then added into each well of a 96-well plate. The cells were incubated overnight at 37 °C and at 5% CO2, allowing the cells to attach to the plates. […] Each treatment was performed in quintuplicate. Treatments occurred for 24 h. Subsequent to this time period, media was removed, and cells were fixed with 5% formaldehyde in PBS for 20 min. Next, cells were incubated for 15 min in a 1 µg/mL solution of DAPI. The plates were then washed several times with PBS to remove all residual DAPI and to reduce background fluorescence.

SMILES | solubility ([1]; pH 6.8, aqueous buffer) [µM] | solubility ([1]; pH 7.4, aqueous buffer) [µM] | IC50 (OVCAR-5; Homo sapiens) [µM] | cell viability (OVCAR-5; OVCAR-5, in vitro cytotoxicity assay) | cell viability (OVCAR-5; OVCAR-5, low concentrations, 24-h incubation) | IC50 (SKOV3) [µM] | cell viability (SKOV3; SKOV3, in vitro cytotoxicity assay) | viability at 24 h, 100 µM ([2]; NIH:3T3, 100 µM) [%] | IC50 (NIH:3T3) [µM] | eccentricity of nuclei (OVCAR-5 cells; OVCAR-5, 5-100 µM) | form factor of nuclei (OVCAR-5 cells) | viability at 20 µM (OVCAR-5; Homo sapiens, OVCAR-5, 24 h, read-out: cell viability) [%] | viability at 24 h ([2]; NIH:3T3, lowest viability reached) [%]
COc1cc(/C=C/C(=O)/C=C(O)/C=C/c2ccc(OC3=CC(=O)c4ccccc4C3=O)c(OC)c2)ccc1OC1=CC(=O)c2ccccc2C1=O [CurNQ, 2,2′-((((1E,3Z,6E)-3-hydroxy-5-oxohepta-1,3,6-triene-1,7-diyl)bis(2-methoxy-4,1-phenylene))bis(oxy))bis(naphthalene-1,4-dione)] | 20.7 (≈ 14.1 µg/mL) | 11.2 (≈ 7.59 µg/mL) | 4.05 | below 50% | below 40% | 5.35 | below 50% | 44 | 65.5 | decreased in a dose-dependent manner | large increase | – | –
O=C1C=C(Br)C(=O)c2ccccc21 [BrNQ, 2-bromo-1,4-naphthoquinone, reference compound] | – | – | 4.85 | – | – | 2.74 | – | – | 6.91 | – | large increase | < 10 | < 15
COc1cc(/C=C/C(=O)CC(=O)/C=C/c2ccc(O)c(OC)c2)ccc1O [CUR, diferuloylmethane, reference compound] | – | – | 9.64 | – | – | 4.79 | – | – | 43.9 | – | – | – | –
